Laboratory results published in article PMC3231940, “Disposition, metabolism and mass balance of [^14C]apremilast following oral administration” (Xenobiotica; the Fate of Foreign Compounds in Biological …, 2011).
Values joined by “and” are separate entries in the source; they are usually repeats but may differ in a detail not shown here. Identical values can stand only once.

Columns and labels:
[1] = tested on: CYP3A4; design: method as in Wu et al. 2006; conditions: co-administration with ketoconazole, healthy subjects; ref Wu et al. 2006; cited from earlier work
[2] = Mass balance: excretion of radioactivity in urine and faeces after a single oral [14C]apremilast dose; format: in vivo, human
Protocol: This was an open-label, inpatient, single-dose study conducted with six non-smoking healthy male volunteers, aged between 19 and 55 years, with body mass index between 19 and 29kg/m^2. Before initiation of the study, the protocol and consent form were reviewed and approved by the institutional review board. All study participants gave written informed consent before the screening process was initiated. This study was conducted in full accordance with the Declaration of Helsinki and Good Clinical (GCP) as required by and described in 21 Code of Federal Regulations.
Each subject was administered a single oral suspension of 20 mg (100 μCi) of [^14C] apremilast in distilled water (240mL total volume). Subjects were fasted for 8 h prior to and 4 h following dose administration. The residual radioactivity in the dosing vials was determined and accounted for approximately 0.3% of the total radioactivity. Dose administration, sample collection, sample processing and determination of total radioactivity were conducted at MDS Pharma Services (Lincoln, NE). Determination of apremilast in plasma, metabolite profiling and metabolite characterization were performed at XenoBiotic Laboratories, Inc. (Plainsboro, NJ).
Urine was collected pre-dose, 0-4, 4-8, 8-12, 12-24 and every 24 h thereafter up to 216h (9 days) following dose administration and was stabilized with one volume of pH 1.5 Sorensen's citrate buffer (25-mM sodium citrate buffer adjusted to pH 1.5). […] Blood (two 5-mL samples for plasma radioactivity counting, a 3-mL sample for whole blood radioactivity counting, a 2-mL sample for apremilast analysis and a 10-mL sample for metabolite profiling) was collected into heparinized tubes at pre-dose, 0.5, 1, 1.5, 2, 2.5, 3, 4, 6, 8, 12, 16, 24, 36, 48, 72, 96, 120, 144 and 168 h following dose administration. Blood samples collected for radioactivity counting were stored at or below -20°C until analysed. […] All urine, faecal homogenates and plasma samples were stored at or below -20°C until analysed.
All radioactivity determinations were performed using a Tri-Carb model 1600TR liquid scintillation counter (PerkinElmer, Wellesley, MA). For plasma and urine analysis, duplicate samples of a known volume were mixed with Ultima Gold XR scintillation cocktail and directly analysed by liquid scintillation counting. […] Using these criteria, the lower limit of quantification in plasma, blood, urine and faeces were 2.07 ng [^14C]apremilast equivalent/mL (ngEq/mL), 2.61 ngEq/g, 1.89 ngEq/mL and 2.52 ngEq/g, respectively.
The amount of total radioactivity (ngEq) in urine and faeces was determined by multiplying the volume or weight of the samples by the radioactivity concentration. […] For data values below the limit of quantification, a value of zero was assigned for calculations of means.

[3] = cited from earlier work
[4] = patients, 20 mg daily for 29 days, capsules, ref Gottlieb et al. 2008

- Amount of drug absorbed ([2]; based on urinary radioactivity): at least 58%
- Faecal excretion of radioactivity, mean (percentage of dose) ([2]; collection over 216 h, listed as [^14C]apremilast): 39% and 39.2%
- Amount of drug absorbed ([2]; if faecal metabolites are included in the calculation): > 80%
- Radioactivity recovered within the first 4 days (96 h) ([2]; urine plus faeces, 96 h after dose, listed as [^14C]apremilast): > 90% and > 92%
Compound: CCOc1cc([C@@H](CS(C)(=O)=O)N2C(=O)c3cccc(NC(C)=O)c3C2=O)ccc1OC [Apremilast, (+)-N-[2-[(lS)-1-(3-ethoxy-4-methoxyphenyl)-2-(methylsulfonyl)ethyl]-1,3-dioxo-2,3-dihydro-lH-isoindol-4-yl]acetamide]
- Increase in apremilast AUC [1]: 36%
- Increase in mean apremilast Cmax [1]: 5%
- half-life ([3]; patients with severe plaque-type psoriasis, multiple daily doses, ref Gottelieb et al. 2008): 8.2 h
- AUC0-24 [3, 4]: 1799 ng·h/mL
- Cmax [3, 4]: 207 ng/mL
